Where a name gives a salt, the structure may show the parent alone.
What was measured:
[1] = Dissolution of EPM and EPM-poloxamer complexes, USP apparatus II, SGF; assay type: physicochemical; details: equivalent to 400 mg dose, SGF without pepsin, 37° C., 25 rpm
Description: (§1) The dissolution rate of the association complex may be carried out using a suitable solvent such as 0.1 N HCl purified water, or simulated gastric fluid, as dissolution medium. The testing is conducted under conditions intended to simulate ingestions at about 37° C. and from about 25 to about 75 rpm. The dissolution may be tested using any method known in the art such as USP apparatus I (a basket apparatus) or USP apparatus II (a paddle apparatus) (USP 27/NF 22, 2004, <711>, page 2303). Samples of the solution are taken at preselected intervals such as at every fifteen minutes up to one hour.
Lutrol F-68, 1.0 gm, and EPM, 1.0 gm, are mixed in a jacketed vessel (KG5) heated to 53° C. while mixing for about 2 hrs. The resulting complex, in the form of free flowing granules, thus formed is allowed cool to room temperature and sieved through a 40 mesh screen. The dissolution of the complex equivalent to the 400 mg dose is determined using USP apparatus II, 900 ml of SGF (simulated gastric fluid without pepsin) as the dissolution medium at 37° C. and 25 rpm.
The dissolution of the complex equivalent to a 400 mg dose is determined using USP apparatus II, in SGF as the dissolution medium at 37° C. and 25 rpm.

[2] = Dissolution of NZ and NZ-poloxamer complex, USP apparatus II, purified water; assay type: physicochemical; details: equivalent to 20mg drug, 1000 ml purified water, 37° C., 75 rpm
Description: as §1
Lutrol F-68 and NZ, 250 mg are mixed in a jacketed vessel (KG 5) and heated to 53° C. while mixing for about 2 hours. The resulting complex thus formed is allowed to cool to room temperature and sieved through a 40 mesh screen. The dissolution of the complex equivalent to 20mg drug is determined using USP apparatus II, 1000 ml of purified water as the dissolution medium at 37° C. and 75 rpm.

Row | SMILES | % DISSOLVED ([1]; 15 minutes) [%] | % DISSOLVED ([1]; 30 minutes) [%] | % DISSOLVED ([1]; 45 minutes) [%] | % DISSOLVED ([1]; 60 minutes) [%] | % DISSOLVED ([2]; 15 minutes) [%] | % DISSOLVED ([2]; 30 minutes) [%] | % DISSOLVED ([2]; 45 minutes) [%] | % DISSOLVED ([2]; 60 minutes) [%]
1 | CCCCc1ncc(/C=C(\Cc2cccs2)C(=O)O)n1Cc1ccc(C(=O)O)cc1 [EPM, eprosartan mesylate] | 38.7 | 51.9 | 61.3 | 61.7 |  |  |  | 
2 | CN(C)C(=O)Cc1nn(-c2ccccc2)c(=O)c2c1c1ccc(Cl)cc1n2C [NZ, 2-(7-chloro-5-methyl-4-oxo-3-phenyl-4,5 dihydro-3H-pyridazino (4,5-b)-indol-1-yl)-N,N-dimethylacetamide] |  |  |  |  | 0.65 | 1.90 | 2.53 | 3.14

— patent US20140212493A1, “Highly Bioavailable Composition Containing Eprosartan - Poloxamer Complex or 2-(7-Chloro-5-Methyl-4-Oxo-3-Phenyl-4,5-Dihydro-3H-Pyridazine (4,5-b)Indol-1-yl)-N,N-Dimethylacetamide - Poloxamer Complex” (BVM Holding Co., priority 2003, published 2014)
